This is an account of results in patent publication US10829501B2 (BRISTOL-MYERS SQUIBB COMPANY, priority 2016, dated 2020).

SMILES strings stand for the structures. Some results are limits rather than exact numbers.

For this assay, the target named is ROCK2 (Homo sapiens, UniProt O75116). Briefly: ROCK2 kinase inhibition assay (LABCHIP 3000 Reader, FITC peptide substrate).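 Note: rho kinase reaction read by separating phosphorylated from unphosphorylated peptide on chip, with inhibition of kinase activity computed per concentration across a dose-response series.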
Sequence of ROCK2 (O75116 whole entry, species assumed): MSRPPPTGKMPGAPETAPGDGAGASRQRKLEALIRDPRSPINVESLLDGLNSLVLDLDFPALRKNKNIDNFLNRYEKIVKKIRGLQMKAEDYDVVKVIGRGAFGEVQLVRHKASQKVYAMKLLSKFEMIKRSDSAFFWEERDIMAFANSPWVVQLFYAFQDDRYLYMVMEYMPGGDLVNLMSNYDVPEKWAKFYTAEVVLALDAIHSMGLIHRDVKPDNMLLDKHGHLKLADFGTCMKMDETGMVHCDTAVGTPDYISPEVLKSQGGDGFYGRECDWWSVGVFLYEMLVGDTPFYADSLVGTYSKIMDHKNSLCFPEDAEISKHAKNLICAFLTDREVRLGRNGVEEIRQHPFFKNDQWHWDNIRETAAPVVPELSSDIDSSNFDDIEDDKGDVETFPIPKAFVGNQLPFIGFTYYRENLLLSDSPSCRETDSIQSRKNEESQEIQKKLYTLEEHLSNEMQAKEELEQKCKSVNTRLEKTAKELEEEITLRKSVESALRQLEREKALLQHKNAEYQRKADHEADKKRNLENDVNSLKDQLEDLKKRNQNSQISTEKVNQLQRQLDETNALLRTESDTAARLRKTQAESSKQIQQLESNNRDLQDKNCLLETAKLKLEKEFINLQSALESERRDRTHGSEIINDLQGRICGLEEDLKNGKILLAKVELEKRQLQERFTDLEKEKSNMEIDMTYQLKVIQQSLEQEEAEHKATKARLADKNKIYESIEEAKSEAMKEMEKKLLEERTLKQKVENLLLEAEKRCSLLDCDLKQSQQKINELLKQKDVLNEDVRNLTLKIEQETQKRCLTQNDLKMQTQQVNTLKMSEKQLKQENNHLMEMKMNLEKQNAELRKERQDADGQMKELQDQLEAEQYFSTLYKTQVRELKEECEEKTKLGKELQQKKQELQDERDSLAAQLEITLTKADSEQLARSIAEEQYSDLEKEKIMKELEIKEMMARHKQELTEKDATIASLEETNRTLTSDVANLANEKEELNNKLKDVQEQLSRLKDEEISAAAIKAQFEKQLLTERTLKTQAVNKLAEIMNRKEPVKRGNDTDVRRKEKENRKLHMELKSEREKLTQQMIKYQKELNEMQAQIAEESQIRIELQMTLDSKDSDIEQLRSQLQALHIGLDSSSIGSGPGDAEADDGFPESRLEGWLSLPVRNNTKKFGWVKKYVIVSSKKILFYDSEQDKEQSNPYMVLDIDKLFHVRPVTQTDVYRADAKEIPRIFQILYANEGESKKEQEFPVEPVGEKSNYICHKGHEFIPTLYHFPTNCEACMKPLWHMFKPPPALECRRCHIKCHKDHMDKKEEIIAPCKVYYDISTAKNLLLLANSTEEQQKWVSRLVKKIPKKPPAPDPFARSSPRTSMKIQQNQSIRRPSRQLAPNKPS

For orientation: IC50 means the concentration at which inhibition is half-maximal. Low values mean greater potency, high ones weaker potency.

`NC(=O)c1ccccc1O[C@H]1CC2(C[C@H](NC(=O)c3cnc4cc(OCCN5CCCC5)ccn34)C2)C1` (stereo partly drawn) [Example 26, N-((aR)-6-(2-carbamoylphenoxy)spiro[3.3]heptan-2-yl)-7-(2-(pyrrolidin-1-yl)ethoxy)imidazo[1,2-a]pyridine-3-carboxamdie] gave an IC50 of 5 to 50 nM.

In the case of `COC(=O)N1CC(Oc2ccc3c(C(=O)N[C@H]4CC5(C4)C[C@H](Oc4ccccc4C(N)=O)C5)cnn3c2)C1` (stereo partly drawn) [Example 27, methyl 3-((3-(((aR)-6-(2-carbamoylphenoxy)spiro[3.3]heptan-2-yl)carbamoyl)pyrazolo[1,5-a]pyridin-6-yl)oxy)azetidine-1-carboxylate], the IC50 lay within 5 to 50 nM.

For `NC(=O)c1ccccc1O[C@H]1CC2(C[C@H](NC(=O)c3cnn4cc(OC5CCS(=O)(=O)CC5)ccc34)C2)C1` (stereo partly drawn) [Example 28, N-[(aR)-6-(2-carbamoylphenoxy)spiro [3.3]heptan-2-yl]-6-[(1,1-dioxo-1λ^6-thian-4-yl)oxy]pyrazolo [1,5-a]pyridine-3-carboxamide], the half-maximal inhibitory concentration (IC50) was less than 5 nM.

Regarding `NC(=O)c1ccccc1O[C@H]1CC2(C[C@H](NC(=O)c3cnc4cc(N5CCOCC5)ccn34)C2)C1` (stereo partly drawn) [Example 29, N-[(aR)-6-(2-carbamoylphenoxy)spiro [3.3]heptan-2-yl]-7-(morpholin-4-yl)imidazo[1,2-a]pyridine-3-carboxamide], the IC50 lay within 5 to 50 nM.

`CS(=O)(=O)CCCOc1ccc2c(C(=O)NC3CC4(C3)CC(Oc3ccccc3C(N)=O)C4)cnn2c1C1CC1` [Example 30, N-[(aR)-6-(2-carbamoylphenoxy)spiro [3.3]heptan-2-yl]-7-cyclopropyl-6-(3-methanesulfonylpropoxy) pyrazolo[1,5-a] pyridine-3-carboxamide]: the IC50 was less than 5 nM.

The molecule `NC(=O)c1ccccc1O[C@H]1CC2(C[C@H](NC(=O)c3cnn4c(C5CC5)c(OCCO)ccc34)C2)C1` (stereo partly drawn) [Example 31, N-[(aR)-6-(2-carbamoylphenoxy)spiro [3.3]heptan-2-yl]-7-cyclopropyl-6-(2-hydroxyethoxy)pyrazolo[1,5-a]pyridine-3-carboxamide] registered a 50% inhibitory concentration (IC50) of 5 to 50 nM.

Regarding `NC(=O)c1ccccc1OC1CC2(CC(NC(=O)c3cnn4c(C5CC5)c(OCCC(F)(F)F)ccc34)C2)C1` [Example 32, N-[(aR)-6-(2-carbamoylphenoxy)spiro [3.3]heptan-2-yl]-7-cyclopropyl-6-(3,3,3-trifluoropropoxy)pyrazolo [1,5-a]pyridine-3-carboxamide], the IC50 is less than 5 nM.

As for `NC(=O)c1ccccc1O[C@H]1CC2(C[C@H](NC(=O)c3cnn4cc(OCCC(F)(F)F)ccc34)C2)C1` (stereo partly drawn) [Example 33, N-[(aR)-6-(2-carbamoylphenoxy)spiro [3.3]heptan-2-yl]-6-(3,3,3-trifluoropropoxy) pyrazolo[1,5-a]pyridine-3-carboxamide], the IC50 was less than 5 nM.

`Cn1cc(-c2ccn3c(C(=O)N[C@H]4CC5(C4)C[C@H](Oc4ccccc4C(N)=O)C5)cnc3c2)cn1` (stereo partly drawn) [Example 34, N-[(aR)-6-(2-carbamoylphenoxy)spiro [3.3]heptan-2-yl]-7-(1-methyl-1H-pyrazol-4-yl)imidazo [1,2-a]pyridine-3-carboxamide] gave a 50% inhibitory concentration (IC50) of 5 to 50 nM.

With `NC(=O)c1ccccc1OC1CC2(CC(NC(=O)c3cnn4c(C5CC5)c(OC5CCS(=O)(=O)CC5)ccc34)C2)C1` [Example 35, N-[(aR)-6-(2-carbamoylphenoxy)spiro [3.3]heptan-2-yl]-7-cyclopropyl-6-[(1,1-dioxo-1λ^6-thian-4-yl)oxy]pyrazolo[1,5-a] pyridine-3-carboxamide], the IC50 was less than 5 nM.

As for `CN1CCN(c2ccn3c(C(=O)N[C@H]4CC5(C4)C[C@H](Oc4ccccc4C(N)=O)C5)cnc3c2)CC1` (stereo partly drawn) [Example 36, N-[(aR)-6-(2-carbamoylphenoxy)spiro [3.3]heptan-2-yl]-7-(4-methylpiperazin-1-yl)imidazo[1,2-a] pyridine-3-carboxamdie], the IC50 was in the range of 5 to 50 nM.

Consider `NC(=O)c1ccccc1O[C@H]1CC2(C[C@H](NC(=O)N3CCc4ccccc43)C2)C1` (stereo partly drawn) [Example 37, N-((aR)-6-(2-carbamoylphenoxy)spiro[3.3]heptan-2-yl)indoline-1-carboxamide], for which the IC50 lay in the range of 50 to 250 nM.

With `COc1ccc2c(c1)CCN2C(=O)N[C@H]1CC2(C1)C[C@H](Oc1ccccc1C(N)=O)C2` (stereo partly drawn) [Example 38, N-[(aR)-6-(2-carbamoylphenoxy)spiro [3.3]heptan-2-yl]-5-methoxy-2,3-dihydro-1H-indole-1-carboxamide], the IC50 lay within 5 to 50 nM.

`CS(=O)(=O)c1ccc2c(c1)CCN2C(=O)N[C@H]1CC2(C1)C[C@H](Oc1ccccc1C(N)=O)C2` (stereo partly drawn) [Example 39, N-[(aR)-6-(2-carbamoylphenoxy)spiro [3.3]heptan-2-yl]-5-methanesulfonyl-2,3-dihydro-1H-indole-1-carboxamide] had a half-inhibitory concentration (IC50) of 50 to 250 nM.

In turn, `COc1ccc(NC(=O)N[C@H]2CC3(C2)C[C@H](Oc2ccccc2C(N)=O)C3)cc1` (stereo partly drawn) [Example 40, 2-[((aR)-6-{[(4-methoxyphenyl)carbamoyl]amino}spiro[3.3]heptan-2-yl)oxy]benzamide] registered an IC50 of 50 to 250 nM.

Molecule `NC(=O)c1ccccc1O[C@H]1CC2(C[C@H](NC(=O)N3Cc4ccccc4C3)C2)C1` (stereo partly drawn) [Example 41, N-[(aR)-6-(2-carbamoylphenoxy)spiro [3.3]heptan-2-yl]-2,3-dihydro-1H-isoindole-2-carboxamide] had an IC50 of 50 to 250 nM.

In turn, `[H][C@]1(Oc2ncccc2C(N)=O)C[C@@]2(C[C@H](NC(=O)c3cnn4c(C5CC5)c(OCC(C)(C)O)ccc34)C2)C1` (stereo partly drawn) [Example 42, N-((aR)-6-((3-carbamoylpyridin-2-yl)oxy)spiro[3.3]heptan-2-yl)-7-cyclopropyl-6-(2-hydroxy-2-methylpropoxy)pyrazolo[1,5-a]pyridine-3-carboxamide] displayed a half-inhibitory concentration (IC50) of less than 5 nM.

As to `[H][C@]1(Oc2ncccc2C(N)=O)C[C@@]2(C[C@H](NC(=O)c3cnn4c(CCC(F)(F)F)c(OCC(C)(C)O)ccc34)C2)C1` (stereo partly drawn) [Example 43, N-((aR)-6-((3-carbamoylpyridin-2-yl)oxy)spiro[3.3]heptan-2-yl)-6-(2-hydroxy-2-methylpropoxy)-7-(3,3,3-trifluoropropyl)pyrazolo[1,5-a]pyridine-3-carboxamide], the 50% inhibitory concentration (IC50) was less than 5 nM.

`[H][C@]1(Oc2ccncc2C(N)=O)C[C@@]2(C[C@H](NC(=O)c3cnn4cc(OCC(C)(C)O)ccc34)C2)C1` (stereo partly drawn) [Example 44, N-((aR)-6-((3-carbamoylpyridin-4-yl)oxy)spiro[3.3]heptan-2-yl)-6-(2-hydroxy-2-methylpropoxy)pyrazolo[1,5-a]pyridine-3-carboxamide] had an IC50 of 250 to 2500 nM.

Consider `[H][C@]1(Oc2cnccc2C(N)=O)C[C@@]2(C[C@H](NC(=O)c3cnn4cc(OCC(C)(C)O)ccc34)C2)C1` (stereo partly drawn) [Example 45, N-((aR)-6-((4-carbamoylpyridin-3-yl)oxy)spiro[3.3]heptan-2-yl)-6-(2-hydroxy-2-methylpropoxy)pyrazolo[1,5-a]pyridine-3-carboxamide], for which the IC50 was 50 to 250 nM.

In the case of `[H][C@]1(Oc2ncccc2C(N)=O)C[C@@]2(C[C@H](NC(=O)c3nn(CC(C)(C)O)c4cc(-c5cnn(C)c5)ccc34)C2)C1` (stereo partly drawn) [Example 46, N-((aR)-6-((3-carbamoylpyridin-2-yl)oxy)spiro[3.3]heptan-2-yl)-1-(2-hydroxy-2-methylpropyl)-6-(1-methyl-1H-pyrazol-4-yl)-1H-indazole-3-carboxamide], the IC50 is less than 5 nM.

On to `[H][C@]1(Oc2ncccc2C(N)=O)C[C@@]2(C[C@H](NC(=O)c3cnc4c(C5CC5)c(OCC(C)(C)F)ccn34)C2)C1` (stereo partly drawn) [Example 47, N-((aR)-6-((3-carbamoylpyridin-2-yl)oxy)spiro[3.3]heptan-2-yl)-8-cyclopropyl-7-(2-fluoro-2-methylpropoxy)imidazo[1,2-a]pyridine-3-carboxamide], for which the IC50 is 5 to 50 nM.

`CC(C)(O)COc1ccc2c(C(=O)N[C@H]3CC4(C3)C[C@H](Oc3nnccc3C(N)=O)C4)cnn2c1` (stereo partly drawn) [Example 48, N-((aR)-6-((4-carbamoylpyridazin-3-yl)oxy)spiro[3.3]heptan-2-yl)-6-(2-hydroxy-2-methylpropoxy)pyrazolo[1,5-a]pyridine-3-carboxamide]: the 50% inhibitory concentration (IC50) lay within 50 to 250 nM.

Molecule `[H][C@]1(Oc2ncccc2C(N)=O)C[C@@]2(C[C@H](NC(=O)c3cnn4c(C5CC5)c(OCC(C)(C)F)ccc34)C2)C1` (stereo partly drawn) [Example 49, N-((aR)-6-((3-carbamoylpyridin-2-yl)oxy)spiro[3.3]heptan-2-yl)-7-cyclopropyl-6-(2-fluoro-2-methylpropoxy)pyrazolo[1,5-a]pyridine-3-carboxamide] displayed an IC50 of less than 5 nM.

`[H][C@]1(Oc2ncccc2C(N)=O)C[C@@]2(C[C@H](NC(=O)c3nn(CC(C)(C)O)c4ccc(-c5cnn(C)c5)cc34)C2)C1` (stereo partly drawn) [Example 50, N-((aR)-6-((3-carbamoylpyridin-2-yl)oxy)spiro[3.3]heptan-2-yl)-1-(2-hydroxy-2-methylpropyl)-5-(1-methyl-1H-pyrazol-4-yl)-1H-indazole-3-carboxamide] had a 50% inhibitory concentration (IC50) of 5 to 50 nM.

As for `[H][C@]1(Oc2ncccc2C(N)=O)C[C@@]2(C[C@H](NC(=O)c3cc(-c4cnn(C(F)F)c4)cc(S(C)(=O)=O)c3)C2)C1` (stereo partly shown) [Example 51], the IC50 is 5 to 50 nM.

Regarding `[H][C@]1(Oc2ncccc2C(N)=O)C[C@@]2(C[C@H](NC(=O)c3cc(-c4cnn(C)c4)cc(S(C)(=O)=O)c3)C2)C1` (stereo partly shown) [Example 52], the IC50 lay within 5 to 50 nM.

Turning to `[2H]C([2H])([2H])n1cc(-c2cc(C(=O)N[C@H]3CC4(C3)C[C@H](Oc3ncccc3C(N)=O)C4)cc(S(C)(=O)=O)c2)cn1` (stereo partly shown) [Example 53, 2-{[(4s)-6-{3-methanesulfonyl-5-[1-(^2H3)methyl-1H-pyrazol-4-yl]benzamido}spiro[3.3]heptan-2-yl]oxy}pyridine-3-carboxamide], the IC50 is 5 to 50 nM.

Consider `[H][C@]1(Oc2ncccc2C(N)=O)C[C@@]2(C[C@H](NC(=O)c3cccc(-c4cnn(C)c4)c3)C2)C1` (stereo partly shown) [Example 54], for which the half-maximal inhibitory concentration (IC50) was 50 to 250 nM.

The molecule `[H][C@]1(Oc2ncccc2C(N)=O)C[C@@]2(C[C@H](NC(=O)c3cccc(-c4cccc(S(C)(=O)=O)c4)c3)C2)C1` (stereo partly shown) [Example 55] registered an IC50 of 50 to 250 nM.

With `[H][C@]1(Oc2ncccc2C(N)=O)C[C@@]2(C[C@H](NC(=O)c3cc(Br)cc(OCCC(F)(F)F)c3)C2)C1` (stereo partly shown) [Example 56], the half-inhibitory concentration (IC50) fell in the range of 5 to 50 nM.
